≈ marks a conversion by molar mass, not a printed value. Where “and” joins values, the source holds several entries; their conditions need not be identical. Identical values can stand only once. Calls of active or inactive are those of the source. The rule behind the calls is not given here.
Columns and labels:
[1] = tested on: Bacillus subtilis; test: Antimicrobial activity against Bacillus subtilis NCIM 2063 assessed as zone of inhibition by well diffusion method; assay type: functional
[2] = tested on: Mycobacterium tuberculosis; test: Antitubercular activity Mycobacterium tuberculosis H37Rv strain ATCC No- 27294 assessed as prevention of color change from blue to pink using Almar Blue measured after 24 hrs by MABA assay; assay type: functional
[3] = tested on: Candida albicans; test: Antifungal activity against Candida albicans NCIM 3100 assessed as zone of inhibition by well diffusion method; assay type: functional
[4] = tested on: Proteus mirabilis; test: Antimicrobial activity against Proteus mirabilis NCIM 2388 assessed as absence of growth by well diffusion method; assay type: functional
[5] = tested on: Proteus mirabilis; test: Antimicrobial activity against Proteus mirabilis NCIM 2388 assessed as zone of inhibition by well diffusion method; assay type: functional
[6] = tested on: Staphylococcus aureus; test: Antimicrobial activity against Staphylococcus aureus NCIM 2178 assessed as zone of inhibition by well diffusion method; assay type: functional
[7] = tested on: Aspergillus niger; test: Antifungal activity against Aspergillus niger ATCC 504 assessed as zone of inhibition by well diffusion method; assay type: functional
[8] = tested on: Bacillus subtilis; test: Antimicrobial activity against Bacillus subtilis NCIM 2063 assessed as absence of growth by well diffusion method; assay type: functional
[9] = tested on: Aspergillus niger; test: Antifungal activity against Aspergillus niger ATCC 504 assessed as absence of growth by well diffusion method; assay type: functional
[10] = tested on: Staphylococcus aureus; test: Antimicrobial activity against Staphylococcus aureus NCIM 2178 assessed as absence of growth by well diffusion method; assay type: functional
[11] = tested on: Escherichia coli; test: Antimicrobial activity against Escherichia coli NCIM 2574 assessed as zone of inhibition by well diffusion method; assay type: functional
[12] = Cytotoxicity against mouse 3T3-L1 cells assessed as cell viability at 12.5 ug/ml measured after 24 hrs by MTT assay relative to control; assay type: toxicity, cell-based; conditions: at 12.5 µg/mL, read-out: Activity
[13] = Cytotoxicity against mouse 3T3-L1 cells assessed as cell viability at 25 ug/ml measured after 24 hrs by MTT assay relative to control; assay type: toxicity, cell-based; conditions: at 25 µg/mL, read-out: Activity

| Compound | inhibition zone (IZ) [1] | MIC [2] | inhibition zone (IZ) [3] | MIC [4] | inhibition zone (IZ) [5] | inhibition zone (IZ) [6] | inhibition zone (IZ) [7] | MIC [8] | MIC [9] | MIC [10] | inhibition zone (IZ) [11] | viability at 24 h, 12.5 ug/ml [12] | viability at 24 h, 25 ug/ml [13] |
| --- | --- | --- | --- | --- | --- | --- | --- | --- | --- | --- | --- | --- | --- |
| Fc1ccc(-c2nn(-c3ccc(F)cc3)cc2-c2csc(Nc3ccc(Cl)cc3)n2)cc1 | 14 mm | 25 µg/mL and 53.9 µM | 10 mm | 125 µg/mL (≈ 269 µM) | 15 mm | 14 mm | 19.6 mm | 125 µg/mL (≈ 269 µM) | 15.6 µg/mL and 33.7 µM | 125 µg/mL (≈ 269 µM) | 12 mm |  |  |
| OC(Cn1cncn1)(Cn1cncn1)c1ccc(F)cc1F [FLUCONAZOLE] |  |  | 21.6 mm | inactive |  |  |  | inactive | 7.82 µg/mL and 25.5 µM | inactive |  |  |  |
| COc1ccc(Nc2nc(-c3cn(-c4ccccc4)nc3-c3ccc(Cl)cc3)cs2)cc1 | 14.8 mm | 1.6 µg/mL and 3.49 µM | 10 mm | 125 µg/mL (≈ 272 µM) | 14 mm | 15 mm | 18.2 mm | 125 µg/mL (≈ 272 µM) | 15.6 µg/mL and 32.5 µM | 125 µg/mL (≈ 272 µM) | inactive |  |  |
| Cc1ccc(Nc2nc(-c3cn(-c4ccc(F)cc4)nc3-c3ccccc3)cs2)cc1 | 14.2 mm | 3.12 µg/mL and 7.34 µM | 10.2 mm | 125 µg/mL (≈ 293 µM) | 14.2 mm | 17 mm | 18.6 mm | 125 µg/mL (≈ 293 µM) | 15.6 µg/mL and 36.7 µM | 62.5 µg/mL and 147 µM | inactive | 102% | 96.2% |
| Cc1ccc(Nc2nc(-c3cn(-c4ccc(F)cc4)nc3-c3ccc(Cl)cc3)cs2)cc1 | 12.2 mm | 1.6 µg/mL and 3.47 µM | 10.8 mm | 125 µg/mL (≈ 271 µM) | 15 mm | 17 mm | 20.2 mm |  | 15.6 µg/mL and 34 µM | 62.5 µg/mL and 136 µM | inactive | 72% | 91.3% |
| COc1ccc(Nc2nc(-c3cn(-c4ccccc4)nc3-c3ccc(C)cc3)cs2)cc1 | 12.4 mm | 50 µg/mL and 114 µM | 10.6 mm | 125 µg/mL (≈ 285 µM) | 15 mm | 14 mm | 18.6 mm |  | 15.6 µg/mL and 35.7 µM | 125 µg/mL (≈ 285 µM) | inactive | 97.5% | 90.5% |
| Cc1ccc(Nc2nc(-c3cn(-c4ccc(F)cc4)nc3-c3ccc(F)cc3)cs2)cc1 | 18 mm | 3.12 µg/mL and 7.03 µM | 10.2 mm | 125 µg/mL (≈ 281 µM) | 15 mm | 13 mm | 18.6 mm | 15.6 µg/mL and 35.2 µM | 15.6 µg/mL and 35.2 µM |  | inactive | 99.5% | 114% |
| Fc1ccc(-c2nn(-c3ccc(F)cc3)cc2-c2csc(Nc3ccccc3)n2)cc1 | 14 mm | 25 µg/mL and 58.1 µM | 12.2 mm | 125 µg/mL (≈ 290 µM) | 15.2 mm | 15 mm | 19.25 mm | 125 µg/mL (≈ 290 µM) | 15.6 µg/mL and 36.3 µM | 125 µg/mL (≈ 290 µM) | inactive |  |  |
| COc1ccc(Nc2nc(-c3cn(-c4ccc(F)cc4)nc3-c3ccc(F)cc3)cs2)cc1 | 12 mm | 3.12 µg/mL and 6.78 µM | 11.6 mm | 125 µg/mL (≈ 271 µM) | 14 mm | 15 mm | 19 mm | 7.82 µg/mL (≈ 17 µM) | 15.6 µg/mL and 34 µM | 125 µg/mL (≈ 271 µM) | inactive | 113% | 102% |
| Clc1ccc(Nc2nc(-c3cn(-c4ccccc4)nc3-c3ccc(Cl)cc3)cs2)cc1 | 11.6 mm | 1.6 µg/mL and 3.46 µM | 10.4 mm | 125 µg/mL (≈ 270 µM) | 14 mm | 14.2 mm | 17.4 mm |  | 31.2 µg/mL and 67.5 µM | 125 µg/mL (≈ 270 µM) | inactive | 118% | 99.2% |
| CN[C@@H]1[C@H](O[C@H]2[C@H](O[C@H]3[C@H](O)[C@@H](O)[C@H](N=C(N)N)[C@@H](O)[C@@H]3N=C(N)N)O[C@@H](C)[C@]2(O)C=O)O[C@@H](CO)[C@H](O)[C@H]1O [STREPTOMYCIN] | 18.5 mm |  |  | 7.82 µg/mL and 25.5 µM | 21 mm | 21 mm |  | 7.82 µg/mL and 13.4 µM | inactive | 7.82 µg/mL and 13.4 µM |  |  |  |
| Cc1ccc(-c2nn(-c3ccccc3)cc2-c2csc(Nc3ccccc3)n2)cc1 | 11.4 mm | 12.5 µg/mL and 30.6 µM | 9.6 mm | 125 µg/mL (≈ 306 µM) | 15 mm | 15 mm | 20 mm |  | 15.6 µg/mL and 38.3 µM | 125 µg/mL (≈ 306 µM) | 13 mm | 64.6% | 57.3% |
